Laboratory results published in patent US5091528A, “6- or 7- (2-imino-2-imidazolidine)-1,4-benzoxazines as α adrenergic agents” (Allergan, Inc., priority 1990, dated 1992).
Counter-ions that a name gives are not always drawn.

Test system: alpha2 -Adrenoreceptor
Experiment: not given
Conditions: described by Chapleo et al.; cited from earlier work

Compound | alpha-2 agonist activity
O=C1COc2ccc(N=C3NCCN3)cc2N1 [Example 12, 6-(2-imino-2-imidazlidine)-3-oxo-3,4-dihydro-(2H)-1,4-benzoxazine] | partial alpha-2 agonists
O=C1COc2cc(N=C3NCCN3)ccc2N1 [Example 3, 7-2(2-imino-2-imidazolidine)-3-oxo-3,4-dihydro-(2H)-1,4-benzoxazine] | partial alpha-2 agonists

Target: T1, alpha-2 adrenergic receptor (Oryctolagus cuniculus, UniProt Q5ZQK3)
T1 construct: The prostatic ends of the vasa deferentia (2-3 cm lengths) were mounted between platinum ring electrodes; from tissue; host or cells: prostatic ends of vasa deferentia of New Zealand white rabbits
T1 sequence (Q5ZQK3 1-451): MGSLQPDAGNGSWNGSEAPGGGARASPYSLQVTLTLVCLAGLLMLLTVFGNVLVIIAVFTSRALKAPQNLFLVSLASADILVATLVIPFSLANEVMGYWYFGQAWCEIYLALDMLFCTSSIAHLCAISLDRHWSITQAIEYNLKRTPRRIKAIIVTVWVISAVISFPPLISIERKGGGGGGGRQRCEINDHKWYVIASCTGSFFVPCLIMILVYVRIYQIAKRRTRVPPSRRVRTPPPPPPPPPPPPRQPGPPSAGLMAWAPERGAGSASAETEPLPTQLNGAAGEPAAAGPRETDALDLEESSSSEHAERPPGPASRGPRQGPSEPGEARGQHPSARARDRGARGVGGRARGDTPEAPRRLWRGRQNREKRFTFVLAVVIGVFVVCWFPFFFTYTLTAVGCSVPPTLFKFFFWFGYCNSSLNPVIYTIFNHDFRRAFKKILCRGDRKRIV
Experiment: Rabbit Vas Deferens Assay (alpha-2 adrenergic receptor activity)
Design: species or system New Zealand white rabbit
Conditions: field-stimulated rabbit vas deferens, 35 degrees C, 4 minute contact time; read-out: EC50 (effective concentration required for a 50% reduction in response height)
Description: (§1) The test procedure for alpha-2 adrenergic receptor activity of the compounds of the present invention is the rabbit vas deferens assay which is described as follows:
(§2) New Zealand white rabbits (2-3 kg) were killed by CO2 inhalation and the vasa deferentia removed. The prostatic ends of the vasa deferentia (2-3 cm lengths) were mounted between platinum ring electrodes in 9 ml organ baths and bathed in Krebs bicarbonate solution of the following composition (millimolar): NaCl 118.0; KCl 4.7; CaCl2 2.5; MgSO4 1.2; KH2 PO4 1.2; glucose 11.0; NaHCO3 25.0; which solution was maintained at 35 degrees C and bubbled with 95% O2 and 5% CO2. The initial tension of the vas deferens was 0.5 g. The tissues were left to equilibrate for 30 minutes before stimulation was started. […] Cumulative concentration-response curves were obtained for the compounds being tested with a 4 minute contact time at each concentration. The reduction in response height was measured and expressed as a percentage of the height of the response before the addition of the compounds. Concentration response curves for each of the compounds were plotted. The effective concentration required for a 50% reduction in response height, expressed as EC50 were obtained from these curves.

EC50 [nM] | Compound
48.5 ± 20.6 | O=C1COc2cc(Br)c(N=C3NCCN3)c(Br)c2N1 [Example 14, 5,7-dibromo-6-(2-imino-2-imidazolidine)-3-oxo-3,4-dihydro-2H-1,4-benzoxazin]
0.59 ± 0.14 | O=C1COc2c(cc(Br)c(N=C3NCCN3)c2Br)N1 [Example 5, 6,8-dibromo-7-(2-imino-2-imidazolidine)-3-oxo-3,4-dihydro-(2H)-1,4-benzoxazine]
105 ± 35.5 | CN1C(=O)COc2cc(N=C3NCCN3)c(Br)cc21 [Example 22, 4-methyl-6-bromo-7-(2-imino-imidazolidine)-3-oxo-3,4-dihydro-2H-1,4-benzoxazinehydrobromide]
8.92 ± 3.11 | CCc1cc2c(cc1N=C1NCCN1)NC(=O)CO2 [Example 50, 7-Ethyl-6-(2-imino-2-imidazolidine)-3-oxo-3,4-dihydro-(2H)-1,4-benzoxazine]
> 10000 | Brc1cc2c(cc1N=C1NCCN1)OCCN2 [Example 7, 6-bromo-7-(2-imino-2-imidazolidine)-3,4-dihydro-(2H)-1,4-benzoxazine]
167 ± 56.1 | O=C1COc2cc(N=C3NCCN3)c(Br)cc2N1 [Example 4, 6-Bromo-7-(2-imino-2-imidazolidine)-3-oxo-3,4-dihydro-(2H)-1,4-benzoxazine,hydrobromide]
74.6 ± 43.6 | Cc1cc2c(cc1N=C1NCCN1)NC(=O)CO2 [Example 39, 7-methyl-6(2-imino-2-imidazolidine)-3-oxo-3,4-dihydro-(2H)-1,4-benzoxazine]
18.1 ± 1.21 | CCCc1c(N=C2NCCN2)ccc2c1NC(=O)CO2 [Example 56, 5-Propyl-6-(2-imino-2-imidazolidine)-3-oxo-3,4-dihydro-(2H)-1,4-benzoxazine]
41.5 ± 24.4 | CN1C(=O)COc2cc(Br)c(N=C3NCCN3)cc21 [Example 31, 7-bromo-4-methyl-6-(2-imino-imidazolidine)-3-oxo-3,4-dihydro-(2H)-1,4-benzoxazine]

Test system: alpha-2 adrenergic receptor
Experiment: as above
Design: species or system New Zealand white rabbit
Conditions: Rabbit Vas Deferens table
Description: as §1, §2

Comment (α1/α2 selectivity) | Compound
α2 Selective | O=C1COc2cc(Br)c(N=C3NCCN3)c(Br)c2N1 [Example 14, 5,7-dibromo-6-(2-imino-2-imidazolidine)-3-oxo-3,4-dihydro-2H-1,4-benzoxazin]
Non-Selective | O=C1COc2c(cc(Br)c(N=C3NCCN3)c2Br)N1 [Example 5, 6,8-dibromo-7-(2-imino-2-imidazolidine)-3-oxo-3,4-dihydro-(2H)-1,4-benzoxazine]
α2 Selective | CN1C(=O)COc2cc(N=C3NCCN3)c(Br)cc21 [Example 22, 4-methyl-6-bromo-7-(2-imino-imidazolidine)-3-oxo-3,4-dihydro-2H-1,4-benzoxazinehydrobromide]
α2 Selective | CCc1cc2c(cc1N=C1NCCN1)NC(=O)CO2 [Example 50, 7-Ethyl-6-(2-imino-2-imidazolidine)-3-oxo-3,4-dihydro-(2H)-1,4-benzoxazine]
α1 Selective | Brc1cc2c(cc1N=C1NCCN1)OCCN2 [Example 7, 6-bromo-7-(2-imino-2-imidazolidine)-3,4-dihydro-(2H)-1,4-benzoxazine]
α2 Selective | O=C1COc2cc(N=C3NCCN3)c(Br)cc2N1 [Example 4, 6-Bromo-7-(2-imino-2-imidazolidine)-3-oxo-3,4-dihydro-(2H)-1,4-benzoxazine,hydrobromide]
α2 Selective | Cc1cc2c(cc1N=C1NCCN1)NC(=O)CO2 [Example 39, 7-methyl-6(2-imino-2-imidazolidine)-3-oxo-3,4-dihydro-(2H)-1,4-benzoxazine]
α2 Selective | CCCc1c(N=C2NCCN2)ccc2c1NC(=O)CO2 [Example 56, 5-Propyl-6-(2-imino-2-imidazolidine)-3-oxo-3,4-dihydro-(2H)-1,4-benzoxazine]
α2 Selective | CN1C(=O)COc2cc(Br)c(N=C3NCCN3)cc21 [Example 31, 7-bromo-4-methyl-6-(2-imino-imidazolidine)-3-oxo-3,4-dihydro-(2H)-1,4-benzoxazine]

Same assay, conditions: printed "Potent- Vasoconstrictor" on two lines

Comment (vasoconstrictor activity) | Compound
Vasoconstrictor | O=C1COc2c(cc(Br)c(N=C3NCCN3)c2Br)N1 [Example 5, 6,8-dibromo-7-(2-imino-2-imidazolidine)-3-oxo-3,4-dihydro-(2H)-1,4-benzoxazine]

Test system: intraocular pressure
Experiment: intraocular pressure (anti-glaucoma) assay, topical unilateral administration
Type: in vivo, monkey or New Zealand white rabbit
Conditions: Contralateral (Untreated) Eye; 0.3% (W/V) to the other eye
Description: The anti-glaucoma activity (ability to maintain or reduce intraocular pressure) of the compounds of the present invention is established by the following assay pressure. This assay procedure is generally recognized in the art to provide pertinent information with respect to the anti-glaucomaactivity of the formulations assayed. Thus, each of the compounds of the invention to be tested was dissolved in distilled water at a concentration of 0.3% (W/V). Each of these solutions was administered topically and unilaterally to one eye of a drugnaive, unanesthetized monkey or New Zealand white rabbit in a single 50 micro liter drop. The contralateral eye received an equal volume of saline prior to determining the intraocular pressure after the mixture was administered. Also, approximately 10 micro liters of 0.5% (W/V) proparacaine (topical anesthetic) was applied to the corneas of each of the animals before determining intraocular pressure. As a control test, six (6) other drug-naive, unanesthetized animals were treated and tested as described above except that no compound of the invention was included in the solutions administered to the eyes.
The intraocular pressure was determined in both eyes of each animal both before and after the solutions were administered. Such intraocular pressure determinations were made in the conventional manner using conventional equipment.

Compound | Duration of IOP decrease [h] | Maximum Difference in Intraocular Pressure After Solution Administration, % Decrease in IOP from Control [%]
CN1C(=O)COc2cc(N=C3NCCN3)c(Br)cc21 [Example 22, 4-methyl-6-bromo-7-(2-imino-imidazolidine)-3-oxo-3,4-dihydro-2H-1,4-benzoxazinehydrobromide] | 1 | 5.7 ± 2.0
CN1C(=O)COc2cc(Br)c(N=C3NCCN3)cc21 [Example 31, 7-bromo-4-methyl-6-(2-imino-imidazolidine)-3-oxo-3,4-dihydro-(2H)-1,4-benzoxazine] | 1 | 6.8 ± 1.8

Same assay, conditions: Ipsilateral (Treated) Eye; 0.3% (W/V), single 50 micro liter drop

Compound | Duration of IOP decrease [h] | Maximum Difference in Intraocular Pressure After Solution Administration, % Decrease in IOP from Control [%]
CN1C(=O)COc2cc(N=C3NCCN3)c(Br)cc21 [Example 22, 4-methyl-6-bromo-7-(2-imino-imidazolidine)-3-oxo-3,4-dihydro-2H-1,4-benzoxazinehydrobromide] | 1 to 2 | 11.5 ± 2.7
CN1C(=O)COc2cc(Br)c(N=C3NCCN3)cc21 [Example 31, 7-bromo-4-methyl-6-(2-imino-imidazolidine)-3-oxo-3,4-dihydro-(2H)-1,4-benzoxazine] | 1 to 6 | 14 ± 2.5

Test system: Alpha 1 adrenergic receptor
Experiment: Rabbit Aorta: Alpha 1 adrenergic receptor assay
Conditions: rabbit thoracic aorta rings, 37° C
Excerpt: The vasoconstrictive properties of the compounds of the present invention, i.e. their ability to reduce or control intraocular bleeding, are established by the rabbit aorta: alpha 1 adrenergic receptors in vivo assay procedure, which is recognized in the art to be indicative of the in vivo activity of the tested compounds as vaso-constrictors or as anti intraocular bleeding agents.
Thoracic aorta specimens were obtained form albino rabbits that were killed by CO2 inhalation. The aorta was cut into 3 mm rings. Tissues were placed in Krebs-Hensleit solution of the following composition (millimolar): NaCl 119; KCl 4.7; MgSO4 1.5, KH2 PO4 1.2; CaCl2 2.5; NaHCO3 25 and glucose 11.0. The solution also contained cocaine (0.1 millimolar) to block neuronal uptake and EDTA (30 micromolar) and ascorbic acid (5 micromolar) to prevent oxidation of the compound being tested. Tissues were hung in 10 ml organ baths and tension was measured via Grass FT03 force-displacement transducers. Resting tension was 2 g for the aorta. The solution was gassed with 95% O2 and 5% CO2 and maintained at 37° C. Tissues were allowed to equilibrate for 2 hours before stimulation and the cumulative addition of the compound to be tested (aryl oxazoline) was started. Tissue stimulation was performed using a square wave stimulator (WPI A310) Accupulser with A385 stimulus) at 0.1 Hz, 2 ms pulse width at 90 mA.

EC50 [nM] | Compound
> 100000 | O=C1COc2cc(Br)c(N=C3NCCN3)c(Br)c2N1 [Example 14, 5,7-dibromo-6-(2-imino-2-imidazolidine)-3-oxo-3,4-dihydro-2H-1,4-benzoxazin]
3.41 ± 0.5 | O=C1COc2c(cc(Br)c(N=C3NCCN3)c2Br)N1 [Example 5, 6,8-dibromo-7-(2-imino-2-imidazolidine)-3-oxo-3,4-dihydro-(2H)-1,4-benzoxazine]
1430 ± 891 | CN1C(=O)COc2cc(N=C3NCCN3)c(Br)cc21 [Example 22, 4-methyl-6-bromo-7-(2-imino-imidazolidine)-3-oxo-3,4-dihydro-2H-1,4-benzoxazinehydrobromide]
940 ± 18.5 | CCc1cc2c(cc1N=C1NCCN1)NC(=O)CO2 [Example 50, 7-Ethyl-6-(2-imino-2-imidazolidine)-3-oxo-3,4-dihydro-(2H)-1,4-benzoxazine]
39 ± 6.36 | Brc1cc2c(cc1N=C1NCCN1)OCCN2 [Example 7, 6-bromo-7-(2-imino-2-imidazolidine)-3,4-dihydro-(2H)-1,4-benzoxazine]
1120 ± 457 | O=C1COc2cc(N=C3NCCN3)c(Br)cc2N1 [Example 4, 6-Bromo-7-(2-imino-2-imidazolidine)-3-oxo-3,4-dihydro-(2H)-1,4-benzoxazine,hydrobromide]
5690 ± 956 | Cc1cc2c(cc1N=C1NCCN1)NC(=O)CO2 [Example 39, 7-methyl-6(2-imino-2-imidazolidine)-3-oxo-3,4-dihydro-(2H)-1,4-benzoxazine]
1120 ± 94.1 | CCCc1c(N=C2NCCN2)ccc2c1NC(=O)CO2 [Example 56, 5-Propyl-6-(2-imino-2-imidazolidine)-3-oxo-3,4-dihydro-(2H)-1,4-benzoxazine]
2740 ± 1430 | CN1C(=O)COc2cc(Br)c(N=C3NCCN3)cc21 [Example 31, 7-bromo-4-methyl-6-(2-imino-imidazolidine)-3-oxo-3,4-dihydro-(2H)-1,4-benzoxazine]

Test system: not listed separately
Experiment: storage stability of solid
Type: physicochemical
Conditions: stored in the dark at 0° C

stability of solid on storage | Compound
at least 6 months | O=S(=O)(O)C1=NCCN1 [Imidazoline-2-sulfonic acid]
